Literature values as cited in patent US20070037797A1, “Method of reducing the risk of adverse cardiovascular (CV) events associated with the administration of pharmaceutical agents which favor CV events” (priority 2005, published 2007).
Where two headings read alike, the source gives them in different places. One block for each compound: values may come before it.

Assays:
[1] = 10 mg dose
[2] = use at high frequency or dose
[3] = in vivo
[4] = FDA determination
[5] = not given; remark: listed apart in the source
[6] = Losartan 50 mg vs. captopril 50 mg three times daily, patients with heart failure
[7] = losartan vs. captopril
[8] = 25 mg/day of rofecoxib versus placebo
[9] = versus the non-selective NSAID naproxen
[10] = in vivo; remark: listed apart in the source
[11] = high-risk patients with diabetes mellitus, compared to placebo
[12] = individuals with essential hypertension

Compound: CC(C)c1c(C(=O)Nc2ccccc2)c(-c2ccccc2)c(-c2ccc(F)cc2)n1CC[C@@H](O)C[C@@H](O)CC(=O)O [atorvastatin]
reduction in LDL [1]: 39%

Compound: CC(=O)Nc1ccc(O)cc1 [acetaminophen]
risk of adverse CV events [2]: significant increase

Compound: COc1ccc(OC(=O)N(CC(=O)O)Cc2ccc(OCCc3nc(-c4ccccc4)oc3C)cc2)cc1 [muraglitazar]
risk of myocardial infarct and stroke [3]: increases the risk of myocardial infarct and stroke

Compound: CCCCC(=O)N(Cc1ccc(-c2ccccc2-c2nnn[nH]2)cc1)[C@H](C(=O)O)C(C)C [valsartan]
survival and rates of non-fatal CV events (patients with myocardial infarction): improved survival and reduced the rates of non-fatal CV events
improving survival and reducing cardiovascular morbidity compared with captopril (target dose of 160 mg twice daily): as effective as the ACE inhibitor captopril

Compound: Cc1ccc(-c2cc(C(F)(F)F)nn2-c2ccc(S(N)(=O)=O)cc2)cc1 [celecoxib]
risk of adverse CV events compared to placebo [4]: increased risk of adverse CV events
hazard for the composite endpoint of death from CV causes ([5]; 200 mg twice daily compared to placebo): 2.5
hazard for the composite endpoint of death from CV causes ([5]; 400 mg twice daily compared to placebo): 3.4
increase in adverse CV events ([5]; versus placebo after a mean duration of 33 months): 2-3 fold

Compound: CCCCc1nc(Cl)c(CO)n1Cc1ccc(-c2ccccc2-c2nn[nH]n2)cc1 [Losartan]
mortality [6]: significant reduction in mortality
clinical endpoints [7]: no significant difference

Compound: Cc1onc(-c2ccccc2)c1-c1ccc(S(N)(=O)=O)cc1 [valdecoxib]
risk of adverse CV events compared to placebo [4]: increased risk of adverse CV events

Compound: CS(=O)(=O)c1ccc(C2=C(c3ccccc3)C(=O)OC2)cc1 [rofecoxib]
increase in the incidence of serious thrombotic adverse events [8]: approximately two
increase in the incidence of myocardial infarction [9]: approximately two
risk of adverse CV events compared to placebo [4]: increased risk of adverse CV events
selectivity for COX-2 compared with celecoxib (COX-2 relative to COX-1): 10 times

risk of stroke [10]: increases the risk of stroke
Compound: O=C(c1ccc(OCCN2CCCCC2)cc1)c1c(-c2ccc(O)cc2)sc2cc(O)ccc12 [raloxifene]

Compound: CCOC(=O)[C@H](CCc1ccccc1)N[C@@H](C)C(=O)N1[C@H](C(=O)O)C[C@@H]2CCC[C@@H]21 [ramipril]
relative risk reduction, combined primary outcome of myocardial infarction, stroke, and cardiovascular death [11]: 25%

endothelial dysfunction [12]: worsening
Compound: CCC(=O)NS(=O)(=O)c1ccc(-c2c(-c3ccccc3)noc2C)cc1 [parecoxib]
